In US20060157667A1, “Method and compositions for controlling release of organic compositions” (Board of Trustees of Michigan State University, priority 2005, published 2006):
“And” between values parts separate entries of the source, which are not always exact repeats. Equal entries are not always repeated.

Assay: Pesticide sorption from water by K- and Ca-SWy-2 smectite clay, batch equilibration method
Type: physicochemical
Settings: for pesticide distribution coefficient for sorption by homoionic K-SWy-2: relative concentration of 0.1 (aqueous equilibrium concentration/aqueous solubility), 0.25 M KCl solution; for change in sorption by sorbents derived from Ca-SWy-2 as fK increased from zero to 0.71: Ca-SWy-2 exchanged with KCl; for sorption by K-SWy-2 relative to sorption by Ca-SWy-2: relative aqueous concentration of 0.1
Procedure: Pesticide sorption from water solution by K— and Ca—SWy-2 mixed with different ratios of aqueous KCl to CaCl2 (kept at a fixed ionic strength of 0.25 M) were measured using a batch equilibration method. A series of initial pesticide concentrations were prepared in the following electrolyte solutions: 0.25 M KCl, 0.24 M KCl/0.003 M CaCl2; 0.20 M KCl/0.016 M CaCl2; 0.15 M KCl/0.033 M CaCl2; 0.10 M KCl/0.05 M CaCl2; 0.05 M KCl/0.067 M CaCl2; 0.01 M KCl/0.08 M CaCl2; and 0.083 M CaCl2. Clays were weighed into glass centrifuge tubes, solute solutions over a range of initial pesticide concentrations were added, and the tubes were closed with Teflon-lined screw caps. The tubes were then shaken reciprocally at 40 rpm for 24 h at room temperature (23±2° C.), followed by centrifugation at 2600 g for 30 min. Previous studies have shown that equilibrium was reached within this period of time (Sheng, G., et al., J. Agri. Food Chem. 49, 2899-2907 (2001); and Sheng, G., et al., Clays Clay Miner. 50, 25-34 (2002)). Supernatants were sampled and subject to analysis for pesticide concentrations using a Perkin-Elmer High Performance Liquid Chromatography (HPLC) system consisting of a Binary 250 LC pump, a Series 200 autosampler and a Series 200 UV-Visible detector. The optimal wavelength was set at 238 nm for dichlobenil, 250 nm for monuron and 248 nm for biphenyl. An Alltech platinum extended polar selectivity C18 column (15 cm by 4.6 mm i.d.) was used for dichlobenil and monuron, and an Alltech adsobosphere C18 column (25 cm by 4.6 mm i.d.) was used for biphenyl. The mobile phase composition was a mixture of methanol and water, and was optimized for each pesticide. Controls consisted of identical pesticide solutions in the corresponding electrolytes, but with no clay present. No changes in solute concentrations were detected in the tubes devoid of clay within the experimental period; therefore, solute mass lost in the supernatant from clay slurries was assumed to be sorbed by clay. The amount of pesticide sorbed was calculated from the difference between the initial and equilibrium solute concentration in aqueous solution.
The actual population of exchangeable K^+ and Ca^2+ associated with the clay was measured in a separate experiment using the BaCl2 extraction method (Rhoades, J. D., Method of Soil Analysis part 2: Chemical and Microbiological Properties; 2nd ed., American Society of Agronomy: Madison, Wis. 149-158 (1982)). The same amounts of clays and electrolyte solutions used in the sorption studies were added into glass centrifuge tubes, the tubes were shaken for 24 h at room temperature then centrifuged at 2600 g for 30 min. Aqueous supernatants were removed, diluted and analyzed by a Perkin-Elmer 3110 atomic absorption spectrophotometer (AAS). The mass of K^+ and Ca^2+ remaining in the residual supernatant was accounted for by assuming their concentrations to be the same as that measured in the bulk supernatant; residual supernatant that could not be removed was determined gravimetrically. The clay pellets were extracted three times using 0.1 M BaCl2, then washed three times with Milli-Q water. The supernatants from the water washing were combined with the supernatants from the BaCl2 extraction step, diluted and analyzed by AAS. The K^+ and Ca^2+ concentrations were measured using the external standards prepared with the matching matrix background of extraction reagents.
We compared sorption coefficients for clays derived from homoionic Ca—SWy-2 vs. those derived from homoionic K—SWy-2 after the homoionic clays had been treated with different amounts of CaCl2/KCl aqueous solutions. […] Replacement of K^+ from K—SWy-2 by Ca^2+ (from fK=1 to 0.66) manifested gradually diminishing sorption of dichlobenil to ˜40% of that by homoionic K—SWy-2.

[1] = relative aqueous concentration 0.1

| Compound | sorption across variation of K+ fractions on minerals from zero to one (relative concentration 0.1, FIG. 4) | pesticide distribution coefficient for sorption by homoionic K-SWy-2 [L/kg] | change in sorption by sorbents derived from Ca-SWy-2 as fK increased from zero to 0.71 [1] | sorption relative to that by homoionic K-SWy-2 after replacement of K+ by Ca2+ (K-SWy-2 derived clay, fK from 1 to 0.66, relative concentration 0.1) [%] | sorption by clay derived from K-SWy-2 (fK=0.66) relative to clay derived from Ca-SWy-2 (fK=0.71) (comparable fK, different starting clay) | sorption by K-SWy-2 relative to sorption by Ca-SWy-2 | sorption enhancement by Ca-SWy-2 derived sorbents at fK as high as 0.71 (Ca2+ replaced by K+, sorption isotherms, FIG. 2) | change in sorption when K-SWy-2 underwent exchange with CaCl2, fK from 1 to 0.81 [1] |
| --- | --- | --- | --- | --- | --- | --- | --- | --- |
| c1ccc(-c2ccccc2)cc1 [Biphenyl, 1,1′-biphenyl] | remained nearly constant | 6.4 | – | – | – | – | – | – |
| N#Cc1c(Cl)cccc1Cl [Dichlobenil, 2,6-dichlorobenzonitrile] | – | 580 | increased by approximately four times | ~40 | ~10 times and 8 times | approximately 75 times higher | – | – |
| CN(C)C(=O)Nc1ccc(Cl)cc1 [Monuron, N′-(4-chlorophenyl)-N,N-dimethylurea] | – | 27 | No apparent enhancement | – | – | ~4 times higher | ca. 205 | reduced by about half |
